# Assay results as given in ChEMBL document CHEMBL1201862, “PubChem BioAssay data set” (2004).
# Activity calls are given as the source filed them.
# How the values were obtained:
# [1] = target: DNA dC->dU-editing enzyme APOBEC-3G (Homo sapiens, UniProt Q9HC16); format: functional;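 note: Dose-response counterscreen measuring inhibition of APOBEC3G DNA deaminase activity, run while confirming APOBEC3A inhibitors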
# [2] = target: DNA dC->dU-editing enzyme APOBEC-3A (Homo sapiens, UniProt P31941); test: Dose Response confirmation of small molecule APOBEC3A DNA Deaminase Inhibitors via a fluorescence-based single-stranded DNA deaminase assay. [Related pubchem assays (depositor defined):AID493011, AID493024]; format: functional
# [3] = target: Glyceraldehyde-3-phosphate dehydrogenase (Homo sapiens, UniProt P04406)
# [4] = target: T1, Replicative DNA helicase DnaB (Mycobacterium tuberculosis, UniProt P9WMR3); test: DnaB intein splicing inhibitors, dose response, biochemical, cell-free fluorescence (AID 449749); format: functional
# T1 sequence (P9WMR3 whole entry): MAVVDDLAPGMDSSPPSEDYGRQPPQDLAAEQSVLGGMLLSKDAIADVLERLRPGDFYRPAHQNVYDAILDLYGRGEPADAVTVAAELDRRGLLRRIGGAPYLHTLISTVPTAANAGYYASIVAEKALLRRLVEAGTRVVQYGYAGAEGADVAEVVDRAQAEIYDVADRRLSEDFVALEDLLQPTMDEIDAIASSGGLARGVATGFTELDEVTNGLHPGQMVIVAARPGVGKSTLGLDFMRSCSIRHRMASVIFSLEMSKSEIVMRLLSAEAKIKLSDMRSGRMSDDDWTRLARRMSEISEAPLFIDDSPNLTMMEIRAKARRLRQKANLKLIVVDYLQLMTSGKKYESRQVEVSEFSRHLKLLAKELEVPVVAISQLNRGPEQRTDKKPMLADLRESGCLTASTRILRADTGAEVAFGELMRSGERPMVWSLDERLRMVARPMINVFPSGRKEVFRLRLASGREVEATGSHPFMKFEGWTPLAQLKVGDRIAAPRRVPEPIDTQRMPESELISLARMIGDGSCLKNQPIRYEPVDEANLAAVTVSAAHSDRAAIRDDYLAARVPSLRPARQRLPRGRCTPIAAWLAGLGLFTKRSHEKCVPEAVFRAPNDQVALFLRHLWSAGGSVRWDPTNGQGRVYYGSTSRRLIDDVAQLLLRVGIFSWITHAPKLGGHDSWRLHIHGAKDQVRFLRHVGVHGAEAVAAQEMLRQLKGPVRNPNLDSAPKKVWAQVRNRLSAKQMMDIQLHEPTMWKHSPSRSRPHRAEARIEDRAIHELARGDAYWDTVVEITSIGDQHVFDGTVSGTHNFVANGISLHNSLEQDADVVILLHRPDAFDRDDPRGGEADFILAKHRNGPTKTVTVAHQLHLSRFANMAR
# Protein RecA = target: T2, Protein RecA (Mycobacterium tuberculosis, UniProt P9WHJ3); test: Fluorescence Cell-Free Homogeneous Dose Retest to Identify Inhibitors of RecA-Intein Splicing Activity. [Related pubchem assays (depositor defined):AID2097, AID2223, AID489010, AID492950]; format: functional
# T2 sequence (P9WHJ3 whole entry): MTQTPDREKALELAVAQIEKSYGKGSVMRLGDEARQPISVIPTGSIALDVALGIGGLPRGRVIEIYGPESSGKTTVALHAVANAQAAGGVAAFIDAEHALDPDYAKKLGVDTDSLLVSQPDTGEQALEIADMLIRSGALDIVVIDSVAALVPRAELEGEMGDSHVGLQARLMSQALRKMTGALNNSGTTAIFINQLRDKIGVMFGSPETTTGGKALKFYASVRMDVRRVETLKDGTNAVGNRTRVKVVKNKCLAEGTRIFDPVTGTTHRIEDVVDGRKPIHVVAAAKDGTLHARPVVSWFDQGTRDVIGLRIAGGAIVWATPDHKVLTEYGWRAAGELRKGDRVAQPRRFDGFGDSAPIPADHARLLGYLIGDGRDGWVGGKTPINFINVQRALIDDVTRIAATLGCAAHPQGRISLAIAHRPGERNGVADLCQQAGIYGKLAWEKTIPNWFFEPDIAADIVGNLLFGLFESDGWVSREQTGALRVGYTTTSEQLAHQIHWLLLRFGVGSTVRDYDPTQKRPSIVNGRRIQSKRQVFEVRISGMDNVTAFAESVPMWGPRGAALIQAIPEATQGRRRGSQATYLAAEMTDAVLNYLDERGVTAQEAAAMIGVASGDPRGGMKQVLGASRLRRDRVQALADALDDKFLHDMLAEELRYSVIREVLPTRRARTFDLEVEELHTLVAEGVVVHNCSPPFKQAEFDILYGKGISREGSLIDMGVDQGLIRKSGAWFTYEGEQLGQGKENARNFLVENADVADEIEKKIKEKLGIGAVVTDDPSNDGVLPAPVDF
# [5] = target: Glucose-6-phosphate 1-dehydrogenase (Homo sapiens, UniProt P11413); test: inhibition of Homo sapiens G6PD, dose series – biochemical, fluorescence, selectivity assay for P. falciparum G6PD inhibitor project, dose response (AID 504792); format: functional
# Large T antigen = Large T antigen (Simian virus 40, UniProt P03070); format: functional, Betapolyomavirus macacae;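 note: Confirmatory-stage PubChem screen for compounds that inhibit SV40 T antigen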
# [6] = target: Induced myeloid leukemia cell differentiation protein Mcl-1 (Homo sapiens, UniProt Q07820); format: functional
# [7] = target: FAD-linked sulfhydryl oxidase ALR (Homo sapiens, UniProt P55789); test: ALR-catalysed DTT oxidation blockers – biochemical, H2O2 detection, luminescence, cherry-pick, dose response (AID 493248)
# [8] = target: T3, Rac GTPase-activating protein 1 (Homo sapiens, UniProt Q9H0H5); test: blockers of MgcRacGAP-driven Rac1 GTP hydrolysis – biochemical, ADP Hunter fluorescence, primary and confirmatory, confirmation (AID 624330); format: functional
# T3 sequence (Q9H0H5 whole entry): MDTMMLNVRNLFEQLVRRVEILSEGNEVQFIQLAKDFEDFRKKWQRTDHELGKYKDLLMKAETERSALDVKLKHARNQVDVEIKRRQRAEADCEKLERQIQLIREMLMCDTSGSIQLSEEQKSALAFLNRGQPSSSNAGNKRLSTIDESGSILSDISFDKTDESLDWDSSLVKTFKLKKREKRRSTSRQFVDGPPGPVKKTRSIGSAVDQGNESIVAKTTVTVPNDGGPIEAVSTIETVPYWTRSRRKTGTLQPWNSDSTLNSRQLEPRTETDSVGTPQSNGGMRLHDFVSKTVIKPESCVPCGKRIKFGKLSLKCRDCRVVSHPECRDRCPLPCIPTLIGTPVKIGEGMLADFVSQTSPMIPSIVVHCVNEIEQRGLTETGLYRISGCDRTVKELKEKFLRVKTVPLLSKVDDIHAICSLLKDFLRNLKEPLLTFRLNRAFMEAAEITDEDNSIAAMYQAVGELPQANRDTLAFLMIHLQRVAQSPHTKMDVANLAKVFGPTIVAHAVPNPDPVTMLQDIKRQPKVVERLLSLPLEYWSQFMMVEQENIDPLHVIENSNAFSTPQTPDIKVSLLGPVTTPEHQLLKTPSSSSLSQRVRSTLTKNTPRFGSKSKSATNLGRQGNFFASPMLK
# Leucine aminopeptidase = target: T4, Leucine aminopeptidase (Plasmodium falciparum 3D7, UniProt Q8IL11); test: P. falciparum M17LAP inhibitors, primary screen, biochemical, fluorogenic H-Leu-NHMec substrate, 1536-well (AID 1619); format: functional
# T4 sequence (Q8IL11 whole entry): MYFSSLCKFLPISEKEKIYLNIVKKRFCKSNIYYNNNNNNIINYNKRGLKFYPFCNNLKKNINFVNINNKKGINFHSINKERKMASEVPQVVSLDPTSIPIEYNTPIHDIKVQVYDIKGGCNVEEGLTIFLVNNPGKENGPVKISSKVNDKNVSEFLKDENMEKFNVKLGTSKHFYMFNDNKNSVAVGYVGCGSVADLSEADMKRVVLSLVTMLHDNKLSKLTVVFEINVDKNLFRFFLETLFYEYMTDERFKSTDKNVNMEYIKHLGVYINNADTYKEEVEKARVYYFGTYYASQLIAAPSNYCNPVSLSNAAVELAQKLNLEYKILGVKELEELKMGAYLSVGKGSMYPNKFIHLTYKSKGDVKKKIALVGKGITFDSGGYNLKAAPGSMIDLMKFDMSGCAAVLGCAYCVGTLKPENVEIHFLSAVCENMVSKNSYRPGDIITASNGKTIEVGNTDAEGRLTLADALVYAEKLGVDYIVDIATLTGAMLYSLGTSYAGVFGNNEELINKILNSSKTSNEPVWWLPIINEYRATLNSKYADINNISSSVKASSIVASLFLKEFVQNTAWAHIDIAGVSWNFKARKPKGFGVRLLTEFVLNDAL
# [9] = Dd2 malaria parasite growth inhibition potency – SYBR Green, dry powder samples, dose response (AID 1159566); format: functional, cell-based;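 note: potency for growth inhibition with lower SYBR green DNA signal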
# [10] = growth inhibition of yeast DHODH-expressing 3D7 parasites – SYBR Green, dry powder samples, dose response (AID 1159570); format: functional, cell-based;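 note: parasite growth measured after 72 hours of compound exposure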
# [11] = P. falciparum Dd2 growth inhibitors, dose response, SYBR Green, cherry-picked samples (AID 1159567); format: functional, cell-based
# [12] = growth inhibition of PfATP4-mutant resistant parasites – NITD609-resistant line, SYBR Green, dry powder, dose response (AID 1159571); format: functional, cell-based;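 note: parasites synchronized at ring stage by sorbitol before testing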
# Cytochrome P450 2D6 = Cytochrome P450 2D6 (Homo sapiens, UniProt P10635);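 note: CYP2D6 member of a cytochrome P450 panel assay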
# [13] = target: T5, Carboxy-terminal domain RNA polymerase II polypeptide A small phosphatase 1 (Homo sapiens, UniProt Q9GZU7); test: CTDSP1 inhibitors, concentration-response, biochemical, absorbance readout, ultra-high-throughput screen actives (AID 540297); format: functional
# T5 sequence (Q9GZU7 whole entry): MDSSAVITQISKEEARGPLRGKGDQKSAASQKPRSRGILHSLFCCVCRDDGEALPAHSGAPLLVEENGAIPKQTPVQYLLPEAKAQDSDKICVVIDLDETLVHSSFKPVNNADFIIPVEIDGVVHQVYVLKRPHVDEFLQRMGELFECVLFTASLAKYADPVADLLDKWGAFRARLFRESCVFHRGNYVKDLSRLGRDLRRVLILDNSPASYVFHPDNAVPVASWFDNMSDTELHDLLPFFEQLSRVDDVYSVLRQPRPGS
# Chain of Large T antigen (P03070 whole entry): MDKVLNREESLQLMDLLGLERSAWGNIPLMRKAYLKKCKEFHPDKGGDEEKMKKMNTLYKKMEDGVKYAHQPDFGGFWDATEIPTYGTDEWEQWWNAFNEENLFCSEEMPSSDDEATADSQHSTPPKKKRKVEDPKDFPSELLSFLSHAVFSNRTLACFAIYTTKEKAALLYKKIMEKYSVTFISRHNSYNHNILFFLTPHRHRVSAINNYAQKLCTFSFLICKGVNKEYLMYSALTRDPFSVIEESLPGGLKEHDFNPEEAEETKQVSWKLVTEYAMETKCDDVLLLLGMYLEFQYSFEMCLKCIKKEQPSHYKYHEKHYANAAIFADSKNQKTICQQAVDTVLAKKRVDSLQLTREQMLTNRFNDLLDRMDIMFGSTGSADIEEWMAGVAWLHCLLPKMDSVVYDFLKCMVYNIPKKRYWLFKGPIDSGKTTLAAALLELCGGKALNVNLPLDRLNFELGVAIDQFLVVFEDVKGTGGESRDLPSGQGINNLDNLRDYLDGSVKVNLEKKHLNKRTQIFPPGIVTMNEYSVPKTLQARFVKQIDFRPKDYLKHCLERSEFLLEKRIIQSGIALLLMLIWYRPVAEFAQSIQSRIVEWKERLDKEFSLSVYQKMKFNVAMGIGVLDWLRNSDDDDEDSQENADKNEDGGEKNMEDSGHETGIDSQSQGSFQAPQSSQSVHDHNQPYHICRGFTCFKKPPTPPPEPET
# Chain of DNA dC->dU-editing enzyme APOBEC-3A (P31941 whole entry): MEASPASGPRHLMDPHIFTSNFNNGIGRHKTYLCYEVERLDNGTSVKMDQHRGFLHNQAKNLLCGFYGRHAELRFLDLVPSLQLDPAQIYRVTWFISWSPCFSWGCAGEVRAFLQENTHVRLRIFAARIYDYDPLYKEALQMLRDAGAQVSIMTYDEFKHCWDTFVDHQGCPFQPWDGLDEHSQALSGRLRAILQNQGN
# Chain of Glyceraldehyde-3-phosphate dehydrogenase (P04406 whole entry): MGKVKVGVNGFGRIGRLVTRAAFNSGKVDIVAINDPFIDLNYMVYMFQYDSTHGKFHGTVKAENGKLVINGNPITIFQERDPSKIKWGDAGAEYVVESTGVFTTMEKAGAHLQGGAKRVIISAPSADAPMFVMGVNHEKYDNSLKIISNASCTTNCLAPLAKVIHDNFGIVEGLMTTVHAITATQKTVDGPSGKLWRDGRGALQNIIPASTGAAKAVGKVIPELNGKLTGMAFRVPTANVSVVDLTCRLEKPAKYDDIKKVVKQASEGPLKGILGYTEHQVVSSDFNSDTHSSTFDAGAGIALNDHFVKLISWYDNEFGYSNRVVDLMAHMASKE
# Chain of DNA dC->dU-editing enzyme APOBEC-3G (Q9HC16 whole entry): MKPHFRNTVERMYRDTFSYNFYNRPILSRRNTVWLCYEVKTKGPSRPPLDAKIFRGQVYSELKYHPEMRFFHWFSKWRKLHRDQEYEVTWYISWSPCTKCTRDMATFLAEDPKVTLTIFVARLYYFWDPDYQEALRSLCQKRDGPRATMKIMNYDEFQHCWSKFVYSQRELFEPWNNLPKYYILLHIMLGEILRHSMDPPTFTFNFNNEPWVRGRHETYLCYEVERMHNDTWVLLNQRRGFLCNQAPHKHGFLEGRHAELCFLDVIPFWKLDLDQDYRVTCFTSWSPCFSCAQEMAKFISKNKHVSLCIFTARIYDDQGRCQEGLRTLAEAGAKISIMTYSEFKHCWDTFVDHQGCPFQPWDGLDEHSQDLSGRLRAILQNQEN
# Chain of Glucose-6-phosphate 1-dehydrogenase (P11413 whole entry): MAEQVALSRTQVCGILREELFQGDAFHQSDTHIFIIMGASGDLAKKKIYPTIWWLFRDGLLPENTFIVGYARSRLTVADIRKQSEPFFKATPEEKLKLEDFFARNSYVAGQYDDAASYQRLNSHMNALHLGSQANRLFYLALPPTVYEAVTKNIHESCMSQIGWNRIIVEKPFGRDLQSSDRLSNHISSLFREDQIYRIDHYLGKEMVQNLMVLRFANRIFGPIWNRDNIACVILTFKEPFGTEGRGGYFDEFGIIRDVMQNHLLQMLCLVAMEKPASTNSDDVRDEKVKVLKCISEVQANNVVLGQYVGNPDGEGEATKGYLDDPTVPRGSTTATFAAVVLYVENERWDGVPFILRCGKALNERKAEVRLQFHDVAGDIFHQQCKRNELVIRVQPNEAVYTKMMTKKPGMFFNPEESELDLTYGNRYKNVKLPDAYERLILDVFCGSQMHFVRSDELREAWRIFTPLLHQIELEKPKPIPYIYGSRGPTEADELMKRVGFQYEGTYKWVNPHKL
# Chain of Induced myeloid leukemia cell differentiation protein Mcl-1 (Q07820 whole entry): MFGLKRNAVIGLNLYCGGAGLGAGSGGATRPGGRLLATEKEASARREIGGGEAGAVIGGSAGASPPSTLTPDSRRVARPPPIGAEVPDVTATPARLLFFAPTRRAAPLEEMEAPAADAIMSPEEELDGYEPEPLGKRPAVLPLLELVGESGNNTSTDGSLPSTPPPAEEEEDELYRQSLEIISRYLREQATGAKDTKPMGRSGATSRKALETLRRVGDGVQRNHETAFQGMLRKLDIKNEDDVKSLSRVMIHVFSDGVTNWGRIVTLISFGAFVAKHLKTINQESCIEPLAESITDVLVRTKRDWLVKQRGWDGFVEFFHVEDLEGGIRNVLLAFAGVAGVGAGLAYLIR
# Chain of Cytochrome P450 2D6 (P10635 whole entry, the tested form may be a part): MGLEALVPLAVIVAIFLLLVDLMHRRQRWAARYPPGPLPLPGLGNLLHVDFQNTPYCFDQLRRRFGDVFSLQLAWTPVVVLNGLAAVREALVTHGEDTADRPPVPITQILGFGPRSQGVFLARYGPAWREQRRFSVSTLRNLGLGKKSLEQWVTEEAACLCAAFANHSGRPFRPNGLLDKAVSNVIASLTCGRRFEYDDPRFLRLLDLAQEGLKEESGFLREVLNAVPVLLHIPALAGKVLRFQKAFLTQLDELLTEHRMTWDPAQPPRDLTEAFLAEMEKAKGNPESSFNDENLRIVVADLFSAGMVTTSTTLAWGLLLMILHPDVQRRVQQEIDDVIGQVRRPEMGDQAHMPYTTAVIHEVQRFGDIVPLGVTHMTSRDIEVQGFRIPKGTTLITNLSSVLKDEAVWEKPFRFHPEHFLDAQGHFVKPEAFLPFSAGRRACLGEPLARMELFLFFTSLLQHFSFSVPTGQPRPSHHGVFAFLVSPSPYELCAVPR
# Chain of FAD-linked sulfhydryl oxidase ALR (P55789 whole entry): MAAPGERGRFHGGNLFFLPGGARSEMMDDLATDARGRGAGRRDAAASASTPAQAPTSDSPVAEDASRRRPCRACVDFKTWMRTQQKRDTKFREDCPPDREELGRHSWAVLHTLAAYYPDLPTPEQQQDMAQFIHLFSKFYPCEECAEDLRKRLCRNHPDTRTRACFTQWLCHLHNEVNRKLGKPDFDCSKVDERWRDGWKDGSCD
compound,measurement,setting,value
O=C1C=C(O)CC(c2ccco2)C1 (stereo not drawn),IC50,[1],37.5 µM (active)
same,IC50,[2],14 µM (active)
Cc1ccc(N2C(=O)C(Cl)=C(N3CCN(c4ccccc4)CC3)C2=O)cc1,IC50,[3],> 50 µM (inconclusive)
O=C(CSc1n[nH]c(-c2ccncc2)n1)Nc1ccc(Cl)c(Cl)c1,IC50,[1],9.18 µM (active)
same,IC50,[2],8.81 µM (active)
Nc1cc(N)c(OCC(F)(F)F)cc1OCC(F)(F)F,AC50,[4],7.43 µM (active)
same,EC50,Protein RecA,4.82 µM (active)
same,IC50,[5],32.7 µM (inactive)
CCCCOC(=O)Nc1ccc(N(C)C)cc1,IC50,Large T antigen,5.43 µM (active)
same,IC50,[6],0.473 µM (not active)
Cc1cc(NS(=O)(=O)c2ccc(Nc3nc(-c4ccc(O)cc4)cs3)cc2)no1,AC50,[7],0.108 µM (active)
same,IC50,[8],30.8 µM (active)
same,IC50,Large T antigen,> 100 µM (active)
CC(=O)Nc1nnc(SCC(=O)NCC2CCCO2)s1 (stereo not drawn),IC50,[1],22.5 µM (active)
same,IC50,[2],38.6 µM (active)
CCOC(=O)COc1ncn(-c2ccccc2)n1,IC50,Leucine aminopeptidase,13.9 µM (active)
COc1ccc(N2CCN(C3=C(Cl)C(=O)N(c4ccc(Cl)nc4)C3=O)CC2)cc1,IC50,[3],> 50 µM (inconclusive)
O=C(COc1ccccc1F)OCC(=O)c1ccc([N+](=O)[O-])cc1,IC50,[5],> 80 µM (inactive)
S=c1[nH]c(-c2ccccc2)nn1-c1ccccc1,IC50,Leucine aminopeptidase,11.5 µM (active)
O=C(O)c1cccc(Cn2c(Cl)c(/C=N/NC(=O)c3ccccc3Cl)sc2=O)c1,IC50,Leucine aminopeptidase,34.1 µM (active)
COc1ccccc1S(=O)(=O)N(C)C[C@H]1OCc2ccccc2-c2c(n(C)c3ccccc23)C(=O)N([C@@H](C)CO)C[C@@H]1C,AC50,[9],1.09 µM (active)
same,AC50,[10],2.03 µM (active)
same,AC50,[11],2.1 µM (active)
same,AC50,[12],1.02 µM (active)
CCCC#Cc1ccc2c(c1)O[C@H](CN(C)C(=O)Nc1ccc(OC)cc1)[C@H](C)CN([C@H](C)CO)S2(=O)=O,AC50,[9],1.82 µM (active)
same,AC50,[10],1.37 µM (active)
same,AC50,[11],1.94 µM (active)
same,AC50,[12],1.45 µM (active)
CC(C)NC(=O)N1[C@@H](CO)[C@@H](c2ccccc2)C12CN(Cc1ccc(F)cc1)C2,AC50,[9],1.95 µM (active)
same,AC50,[10],4 µM (active)
same,AC50,[11],3.25 µM (active)
same,AC50,[12],2.17 µM (active)
O=C(C1CCCC1)N1CC(=O)N2[C@H](CO)[C@H](c3ccc(-c4cccnc4)cc3)[C@H]2C1,AC50,[9],1.11 µM (active)
same,AC50,[10],2.33 µM (active)
same,AC50,[11],1.47 µM (active)
same,AC50,[12],1.85 µM (active)
C[C@@H]1CN([C@@H](C)CO)C(=O)c2cccc(NC(=O)c3nc4ccccc4s3)c2O[C@H]1CN(C)C(=O)Nc1ccc2c(c1)OCO2,AC50,[9],1.37 µM (active)
same,AC50,[10],0.985 µM (active)
same,AC50,[11],2.35 µM (active)
same,AC50,[12],1.18 µM (active)
CCOc1ccc(Cl)cc1S(=O)(=O)Nc1cccnc1,IC50,[3],> 100 µM (not active)
O=C(O)C1=CC(=C(c2ccc(O)c(C(=O)O)c2)c2ccc(O)c(C(=O)O)c2)C=CC1=O [AURINTRICARBOXYLIC ACID],IC50,Large T antigen,1.93 µM (active)
same,AC50,Cytochrome P450 2D6,39.8 µM (inconclusive)
C[C@H](CCC(=O)O)[C@H]1CC[C@H]2[C@@H]3CC[C@@H]4C[C@H](O)CC[C@]4(C)[C@H]3CC[C@]12C [LITHOCHOLIC ACID],IC50,[13],4.82 µM (active)
same,IC50,Large T antigen,26.1 µM (active)
CC[N+](CC)(CC)CCOc1ccc(/C=C/c2ccccc2)cc1 [STILONIUM IODIDE],IC50,[1],2.57 µM (active)
same,IC50,[13],20.2 µM (active)
same,IC50,[2],2.33 µM (active)
